Data reported in patent publication US11759495B2, “Upregulation of therapeutic T regulatory cells and suppression of suicidal ideations in response to inflammation by administration of nutraceutical compositions alone or combined with minocycline” (Therapeutic Solutions International, Inc., priority 2020, dated 2023).
Where two headings read alike, the source gives them in different places.

Legend:
[1] = test system: primary peritoneal macrophages; details: cited from earlier work
LPS-induced ARDS [2] = details: cited from earlier work
[3] = test system: LPS-challenged macrophages; details: 0 to 50 μM, 6 h pre-incubation, LPS 24 h; cited from earlier work
[4] = test system: sepsis induction with live Escherichia coli / LPS O111:B4; details: cited from earlier work; for concentration of IL-1α: controls 1187.0±278.64
[5] = test system: lipopolysaccharide-induced inflammatory reactions; details: cited from earlier work
macrophage foam cells = details: cited from earlier work
[6] = test system: lethal endotoxemia / lethal sepsis; details: cited from earlier work
LPS-induced ARDS [7] = details: cited from earlier work; remark: listed apart in the source
polymicrobial sepsis [8] = details: 10 mg/kg intraperitoneally at 1 and 6 h after CL2P and every 12 h; cited from earlier work
iNOS = details: cited from earlier work
polymicrobial sepsis [9] = details: 10 mg/kg intraperitoneally, 72 h after CL2P; cited from earlier work
ulcerative colitis (UC) = details: cited from earlier work
[10] = test system: myocardial ischemia and reperfusion; details: cited from earlier work
NK cell = assay: Nanostilbene in cancer patients: NK cell activity and interferon gamma; format: in vivo, human; details: administered in the form of nanostilbene
Source text: Additionally, pterostilbene has shown to inhibit inflammatory cytokines associated with ARDS.

[11] = rat, in vivo; cited from earlier work
[12] = test system: inflammatory cytokines associated with ARDS; details: cited from earlier work
[13] = 10 mg/kg intravenously then 10 mg/kg/h infusion

Compound: C[S+]([O-])CCCCN=C=S (stereo not shown) [sulforaphane, 1-isothiocyanato-4-(methylsulfinyl)-butane]
- HO-1 expression ([1]; LPS-stimulated Nrf2 (+/+) macrophages): significantly augmented
- LPS-stimulated mRNA expression, protein expression and production of TNF-alpha, IL-1beta, COX-2 and iNOS ([1]; Nrf2 (+/+) macrophages, pretreatment): potently inhibited
- anti-inflammatory effect ([1]; Nrf2 (-/-) macrophages): attenuated
- serum levels of interleukin-6 (IL-6) (LPS-induced ARDS [2]; 50 mg/kg, ELISA): significantly decreased
- serum levels of tumor necrosis factor-α (TNF-α) (LPS-induced ARDS [2]; 50 mg/kg, ELISA): significantly decreased
- lactate dehydrogenase (LDH) activity (LPS-induced ARDS [2]; 50 mg/kg, LPS 5 mg/kg 3 days later): significantly decreased
- cyclooxygenase-2 (COX-2) protein expression (LPS-induced ARDS [2]; 50 mg/kg, western blot): significantly inhibited
- matrix metalloproteinase-9 (MMP-9) protein expression (LPS-induced ARDS [2]; 50 mg/kg, western blot): significantly inhibited
- inducible nitric oxide synthase (iNOS) activity (LPS-induced ARDS [2]; 50 mg/kg): significantly inhibited
- nuclear factor-KB protein expression (LPS-induced ARDS [2]; 50 mg/kg): significantly decreased
- prostaglandin E2 (PGE2) production (LPS-induced ARDS [2]; 50 mg/kg): significantly inhibited
- wet-to-dry ratio of the lungs (LPS-induced ARDS [2]; 50 mg/kg): significantly decreased
- Nrf2/antioxidant response element (ARE) pathway (LPS-induced ARDS [2]; pre-treatment): activated
- direct reaction with cytokines and NO [3]: neither directly reacted with cytokines, nor with NO
- expression of NO and cytokines [3]: able to prevent

Compound: CC1=CC(=O)C(C(C)C)=CC1=O [thymoquinone]
- concentration of IL-1α ([4]; 0.75 mg/kg dose): 310.8 ± 70.93 pg/mL
- IL-10 levels ([4]; 0.75 mg/kg, controls 5505.2±333.96): 2885.0 ± 553.98 pg/mL
- concentration of IL-1α ([4]; 1 mg/kg group): 428.3 ± 71.32 pg/mL
- levels of IL-2 ([4]; P=0.0851): relatively lower levels
- levels of TNF-α ([4]; P=0.1817): relatively lower levels
- mortality reduction ([4]; mice, thymoquinone intraperitoneal): 80-90%
- renal and hepatic biomarker profiles ([4]; mouse, in vivo): improved
- concentration of nitric oxide [5]: reduced significantly
- lipopolysaccharide-induced inflammatory reactions [5]: suppressed effectively

Compound: epigallocatechin-3-gallate [EGCG]
- TNF-α-induced nuclear factor-κB (NF-κB) activity (macrophage foam cells): inhibition
- TNF-α-induced downregulation of ABCA1 and decrease in cholesterol efflux to apoA1 (macrophage foam cells; pretreatment): attenuated
- rescue from lethal sepsis ([6]; first dose 24 hours after cecal ligation and puncture): rescued
- protection against lethal endotoxemia ([6]; intraperitoneal): protected
- LPS-induced ARDS (LPS-induced ARDS [7]; 10 mg/kg ip 1 h before LPS 10 mg/kg ip): attenuated
- expression of IκB-α (LPS-induced ARDS [7]; 10 mg/kg ip): increased
- expression of TLR-4, MyD88, TRIF, and p-p65 in the lung tissue (LPS-induced ARDS [7]; 10 mg/kg ip): alleviated
- expression of TNF-α, IL-1f and IL-6 in the lung, serum, and bronchoalveolar lavage fluid (LPS-induced ARDS [7]; 10 mg/kg ip): significantly decreased
- expression of p65 (LPS-induced ARDS [7]; 10 mg/kg ip): had no influence
- hypotension (mean arterial blood pressure) (polymicrobial sepsis [8]): significantly improved
- NO production (iNOS; cells cotreated with EGCG and LPS): Inhibition
- 130-kDa protein and 4.5-kb mRNA levels of iNOS (iNOS): significantly reduced
- disappearance of inhibitor kappaB from cytosolic fraction (iNOS): blocked
- activation of nuclear factor-kappaB (iNOS; electrophoretic mobility shift assay): blocked
- survival (polymicrobial sepsis [9]): significantly improved
- colonic tissue erosion (ulcerative colitis (UC); 50 and 100 mg/kg/day): attenuation
- HIF-1α and STAT3 protein expression in the colon (ulcerative colitis (UC); mouse, in vivo): decreasing
- plasma levels of IL-10 and TGF-β1 (ulcerative colitis (UC); mouse, in vivo): increasing
- release of IL-6 and IL-17 (ulcerative colitis (UC); plasma): reduce
- myeloperoxidase activity [10, 13]: reduced
- myocardial damage [10, 13]: reduced
- nuclear factor-kB and activator protein-1 DNA binding ([10]; rat, in vivo): reduction
- plasma IL-6 levels ([10]; rat, in vivo): decreased
- plasma creatine phosphokinase levels ([10]; rat, in vivo): decreased

Compound: trans-3,5-dimethoxy-4-hydroxystilbene [pterostilbene]
- NK cell activity (NK cell): increased NK cell activity
- interferon gamma production (NK cell): increased
- bioavailability [11]: 80%
- interleukin-1, interleukin-6, interleukin-8 and TNF-alpha [12]: inhibition
